Test results taken from PubChem BioAssay AID248 (DTP/NCI, 2004).
Values joined by “and” are separate entries in the source; they are usually repeats but may differ in a detail not shown here. Equal values may be shown once. Toxic doses and inconclusive results are not listed.

Tested on: L1210 leukemia ip in BDF1 mice, survival T/C
Assay: NCI In Vivo Anticancer Drug Screen. Data for tumor model L1210 Leukemia (intraperitoneal) in B6D2F1 (BDF1) mice
Conditions: endpoint: mean survival time, higher = longer survival
Outline: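 Transplanted-tumor mice were given test agent; controls received vehicle only. Survival readings from the two groups were divided (treated over control).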

[1] = dose: 100.0 mg/kg/injection, schedule: Q04DX003 (ip), vehicle: saline with Tween-80
[2] = dose: 200.0 mg/kg/injection, schedule: Q04DX003 (ip), vehicle: saline with Tween-80
[3] = dose: 400.0 mg/kg/injection, schedule: Q04DX003 (ip), vehicle: saline with Tween-80
[4] = dose: 100.0 mg/kg/injection, schedule: Q04DX002 (ip), vehicle: Klucel (hydroxypropylcellulose) (HPC)
[5] = dose: 200.0 mg/kg/injection, schedule: Q04DX002 (ip), vehicle: Klucel (hydroxypropylcellulose) (HPC)
[6] = dose: 100.0 mg/kg/injection, schedule: Q01DX009 (ip), vehicle: saline with Tween-80

`O=C(O)COc1c(Br)cc(F)cc1Br` was tested, and the T/C (dose: 100.0 mg/kg/injection, schedule: Q04DX002 (ip), vehicle: other) was 103 % of control, the T/C (dose: 200.0 mg/kg/injection, schedule: Q04DX002 (ip), vehicle: other) was 109 % of control and 90 % of control and the T/C (dose: 400.0 mg/kg/injection, schedule: Q04DX002 (ip), vehicle: other) was 100 % of control and 86 % of control.
`COc1cccc(/C(C)=N\Nc2ccc([N+](=O)[O-])cc2[N+](=O)[O-])c1OC` was tested, and the T/C (dose: 50.0 mg/kg/injection, schedule: Q01DX009 (ip), vehicle: saline) was 92 % of control, the T/C (dose: 100.0 mg/kg/injection, schedule: Q01DX009 (ip), vehicle: saline) was 90 % of control and the T/C [1] was 94 % of control and 96 % of control. For the same compound, the T/C [2] was 87 % of control and the T/C [3] was 86 % of control and 92 % of control.
For `Cc1cc(NC(=O)Nc2cc(Cl)ccc2C)no1`, the T/C (dose: 12.5 mg/kg/injection, schedule: Q01DX009 (ip), vehicle: Klucel (hydroxypropylcellulose) (HPC)) was 95 % of control, the T/C (dose: 25.0 mg/kg/injection, schedule: Q01DX009 (ip), vehicle: Klucel (hydroxypropylcellulose) (HPC)) was 106 % of control and the T/C (dose: 50.0 mg/kg/injection, schedule: Q01DX009 (ip), vehicle: Klucel (hydroxypropylcellulose) (HPC)) was 98 % of control.
For `O=C(/C=C\c1ccc(C(=O)Nc2ccc(C3=NCCCN3)cc2)cc1)Nc1ccc(C2=NCCCN2)cc1`, the T/C (dose: 0.25 mg/kg/injection, schedule: Q01DX Z (ip), vehicle: water) was 121 % of control, the T/C (dose: 0.75 mg/kg/injection, schedule: Q01DX Z (ip), vehicle: water) was 183 % of control and the T/C (dose: 1.0 mg/kg/injection, schedule: Q01DX Z (ip), vehicle: water) was 220 % of control. For the same compound, the T/C (dose: 1.25 mg/kg/injection, schedule: Q01DX Z (ip), vehicle: water) was 203 % of control, the T/C (dose: 10.5 mg/kg/injection, schedule: Q01DX Z (ip), vehicle: water) was 123 % of control and the T/C (dose: 50.0 mg/kg/injection, schedule: Q01DX Z (oral), vehicle: water) was 101 % of control. The T/C (dose: 100.0 mg/kg/injection, schedule: Q01DX Z (oral), vehicle: water) was 93 % of control and the T/C (dose: 200.0 mg/kg/injection, schedule: Q01DX Z (oral), vehicle: water) was 114 % of control.
`NNC(=O)CNc1ccccc1Cl` was tested, and the T/C [4] was 112 % of control and the T/C [5] was 108 % of control.
With `Cc1ncc2c(=O)n(-c3ccc([N+](=O)[O-])cc3)[nH]c2n1` the T/C [1] was 108 % of control, the T/C [2] was 100 % of control and the T/C [3] was 108 % of control.
In the case of `O=C(OCC1OC(OC(=O)c2ccccc2)C(OC(=O)c2ccccc2)C(OC(=O)c2ccccc2)C1OC(=O)c1ccccc1)c1ccccc1` (stereo unspecified), the T/C (dose: 100.0 mg/kg/injection, schedule: Q01DX001 (ip), vehicle: saline) is reported as 98 % of control, the T/C (dose: 200.0 mg/kg/injection, schedule: Q01DX001 (ip), vehicle: saline) is reported as 98 % of control and the T/C (dose: 400.0 mg/kg/injection, schedule: Q01DX001 (ip), vehicle: saline) is reported as 106 % of control.
For `C[C@@H]1CN(C(=O)CCOS(C)(=O)=O)[C@@H](C)CN1C(=O)CCOS(C)(=O)=O`, the T/C (dose: 2.5 mg/kg/injection, schedule: Q01DX Z (ip), vehicle: carboxymethylcellulose (CMC)) was 112 % of control, the T/C (dose: 3.7 mg/kg/injection, schedule: Q01DX Z (ip), vehicle: carboxymethylcellulose (CMC)) was 102 % of control and the T/C (dose: 5.6 mg/kg/injection, schedule: Q01DX Z (ip), vehicle: carboxymethylcellulose (CMC)) was 115 % of control. The T/C (dose: 8.4 mg/kg/injection, schedule: Q01DX Z (ip), vehicle: carboxymethylcellulose (CMC)) was 103 % of control, the T/C (dose: 29.5 mg/kg/injection, schedule: Q01DX Z (ip), vehicle: carboxymethylcellulose (CMC)) was 116 % of control and the T/C (dose: 60.0 mg/kg/injection, schedule: Q01DX Z (ip), vehicle: carboxymethylcellulose (CMC)) was 166 % of control. For the same compound, the T/C (dose: 198.0 mg/kg/injection, schedule: Q01DX Z (ip), vehicle: carboxymethylcellulose (CMC)) was 117 % of control, the T/C (dose: 200.0 mg/kg/injection, schedule: Q01DX Z (ip), vehicle: carboxymethylcellulose (CMC)) was 119 % of control and the T/C (dose: 201.0 mg/kg/injection, schedule: Q01DX Z (ip), vehicle: carboxymethylcellulose (CMC)) was 91 % of control. For the same compound, the T/C (dose: 300.0 mg/kg/injection, schedule: Q01DX Z (ip), vehicle: carboxymethylcellulose (CMC)) was 121 % of control and 90 % of control and the T/C (dose: 302.0 mg/kg/injection, schedule: Q01DX Z (ip), vehicle: carboxymethylcellulose (CMC)) was 95 % of control.
For `Cc1cc(N(CCCOS(C)(=O)=O)CCCOS(C)(=O)=O)ccc1C=Nc1cccc(Cl)c1`, the T/C [1] was 97 % of control, the T/C [2] was 98 % of control and the T/C [3] was 92 % of control.
With `NC(=O)CN1C(=O)C2C3C=CC(C3)C2C1=O` (stereo unspecified) the T/C [1] was 97 % of control, the T/C [2] was 109 % of control and the T/C [3] was 97 % of control.
For `CC(=O)c1cccc(NC(=O)OCC2CC3C=CC2C3)c1` (stereo unspecified), the T/C (dose: 100.0 mg/kg/injection, schedule: Q01DX009 (ip), vehicle: Klucel (hydroxypropylcellulose) (HPC)) was 112 % of control, the T/C (dose: 200.0 mg/kg/injection, schedule: Q01DX009 (ip), vehicle: Klucel (hydroxypropylcellulose) (HPC)) was 104 % of control and the T/C (dose: 400.0 mg/kg/injection, schedule: Q01DX009 (ip), vehicle: Klucel (hydroxypropylcellulose) (HPC)) was 103 % of control.
With `CN=[N+]([O-])C1(OC(C)=O)CCCC1` the T/C (dose: 6.25 mg/kg/injection, schedule: Q01DX001 (ip), vehicle: saline) was 117 % of control, the T/C (dose: 12.5 mg/kg/injection, schedule: Q01DX001 (ip), vehicle: saline) was 110 % of control and the T/C (dose: 25.0 mg/kg/injection, schedule: Q01DX001 (ip), vehicle: saline) was 117 % of control. For the same compound, the T/C (dose: 50.0 mg/kg/injection, schedule: Q01DX001 (ip), vehicle: saline) was 113 % of control.
With `CCOC(=O)Cc1nnn(C)n1` the T/C (dose: 100.0 mg/kg/injection, schedule: Q04DX003 (ip), vehicle: saline) was 93 % of control and the T/C (dose: 200.0 mg/kg/injection, schedule: Q04DX003 (ip), vehicle: saline) was 90 % of control.
`Cc1ccc(Cl)cc1NC(=O)c1c(Br)c(Br)c(Br)c(Br)c1C(=O)O` was tested, and the T/C [6] was 105 % of control, the T/C [1] was 97 % of control and the T/C (dose: 200.0 mg/kg/injection, schedule: Q01DX009 (ip), vehicle: saline with Tween-80) was 105 % of control. The T/C [2] was 101 % of control, the T/C (dose: 400.0 mg/kg/injection, schedule: Q01DX009 (ip), vehicle: saline with Tween-80) was 113 % of control and the T/C [3] was 101 % of control.
In the case of `COc1cccc2c1N=c1c(Cl)c3c(c(Cl)c1O2)=Nc1c(OC)cccc1O3`, the T/C (dose: 100.0 mg/kg/injection, schedule: Q04DX003 (ip), vehicle: Klucel (hydroxypropylcellulose) (HPC)) is reported as 106 % of control, the T/C (dose: 200.0 mg/kg/injection, schedule: Q04DX003 (ip), vehicle: Klucel (hydroxypropylcellulose) (HPC)) is reported as 102 % of control and the T/C (dose: 400.0 mg/kg/injection, schedule: Q04DX003 (ip), vehicle: Klucel (hydroxypropylcellulose) (HPC)) is reported as 113 % of control.
With `O=C(OCC(O)C(O)C(O)C(O)COC(=O)c1ccccc1)c1ccccc1` (stereo unspecified) the T/C (dose: 100.0 mg/kg/injection, schedule: Q01DX001 (ip), vehicle: carboxymethylcellulose (CMC)) was 98 % of control, the T/C (dose: 200.0 mg/kg/injection, schedule: Q01DX001 (ip), vehicle: carboxymethylcellulose (CMC)) was 95 % of control and the T/C (dose: 400.0 mg/kg/injection, schedule: Q01DX001 (ip), vehicle: carboxymethylcellulose (CMC)) was 95 % of control.
With `FC(F)(F)C(Cl)(c1ccc(Cl)cc1)c1ccc(Cl)cc1` the T/C (dose: 100.0 mg/kg/injection, schedule: Q04DX003 (sc), vehicle: olive oil, sesame oil, peanut oil) was 102 % of control and the T/C (dose: 400.0 mg/kg/injection, schedule: Q04DX003 (sc), vehicle: olive oil, sesame oil, peanut oil) was 100 % of control.
In the case of `Cc1ccc(S(=O)(=O)Cl)cc1C(=O)O`, the T/C (dose: 12.5 mg/kg/injection, schedule: Q01DX001 (ip), vehicle: saline with Tween-80) is reported as 92 % of control and 99 % of control, the T/C (dose: 25.0 mg/kg/injection, schedule: Q01DX001 (ip), vehicle: saline with Tween-80) is reported as 99 % of control and 87 % of control and the T/C (dose: 25.0 mg/kg/injection, schedule: Q01DX009 (ip), vehicle: saline with Tween-80) is reported as 102 % of control. For the same compound, the T/C (dose: 25.0 mg/kg/injection, schedule: Q04DX003 (ip), vehicle: saline with Tween-80) was 103 % of control, the T/C (dose: 50.0 mg/kg/injection, schedule: Q01DX009 (ip), vehicle: saline with Tween-80) was 93 % of control and the T/C (dose: 50.0 mg/kg/injection, schedule: Q04DX002 (ip), vehicle: saline with Tween-80) was 96 % of control and 108 % of control. For the same compound, the T/C (dose: 50.0 mg/kg/injection, schedule: Q04DX003 (ip), vehicle: saline with Tween-80) was 97 % of control, the T/C (dose: 100.0 mg/kg/injection, schedule: Q01DX001 (ip), vehicle: saline with Tween-80) was 94 % of control and 95 % of control and the T/C [6] was 96 % of control. The T/C (dose: 100.0 mg/kg/injection, schedule: Q04DX002 (ip), vehicle: saline with Tween-80) was 104 % of control and 86 % of control and 90 % of control and the T/C [1] was 98 % of control.
For `O=C(c1ccc(N2CC=C(c3ccccc3)CC2)cc1)C1CC1`, the T/C [4] was 92 % of control, the T/C [5] was 95 % of control and the T/C (dose: 400.0 mg/kg/injection, schedule: Q04DX002 (ip), vehicle: Klucel (hydroxypropylcellulose) (HPC)) was 89 % of control.
